In the experiment the target is recombinant human SAE enzyme (Homo sapiens (Human), UniProt Q9UBT2). The experiment is described as follows: SAE HTRF enzyme assay. It counts as biochemical. The conditions noted are these: for inhibition at 0.111 µM: read-out: Percent Inhibition. In outline:
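Enzyme reaction: 50 mM HEPES pH 7.5, 5 mM MgCl2, 250 μM GSH, 0.05% BSA, 0.5 μM ATP, 0.01 μM Ubc9-GST, 0.125 μM Sumo-Flag, 0.11 nM SAE; 105 min, 24° C. Stop/detect, 2 h, then HTRF. % inh or IC50.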
On the technique in general: TR-FRET usually uses a lanthanide donor and a delayed reading to cut background.

Where [1] appears, read: SAE inhibition at compound concentration 0.111 μM.
The mark [2] stands for this setting: SAE inhibition, class symbols, legend in nM.

Sequence of recombinant human SAE enzyme (Q9UBT2 whole entry): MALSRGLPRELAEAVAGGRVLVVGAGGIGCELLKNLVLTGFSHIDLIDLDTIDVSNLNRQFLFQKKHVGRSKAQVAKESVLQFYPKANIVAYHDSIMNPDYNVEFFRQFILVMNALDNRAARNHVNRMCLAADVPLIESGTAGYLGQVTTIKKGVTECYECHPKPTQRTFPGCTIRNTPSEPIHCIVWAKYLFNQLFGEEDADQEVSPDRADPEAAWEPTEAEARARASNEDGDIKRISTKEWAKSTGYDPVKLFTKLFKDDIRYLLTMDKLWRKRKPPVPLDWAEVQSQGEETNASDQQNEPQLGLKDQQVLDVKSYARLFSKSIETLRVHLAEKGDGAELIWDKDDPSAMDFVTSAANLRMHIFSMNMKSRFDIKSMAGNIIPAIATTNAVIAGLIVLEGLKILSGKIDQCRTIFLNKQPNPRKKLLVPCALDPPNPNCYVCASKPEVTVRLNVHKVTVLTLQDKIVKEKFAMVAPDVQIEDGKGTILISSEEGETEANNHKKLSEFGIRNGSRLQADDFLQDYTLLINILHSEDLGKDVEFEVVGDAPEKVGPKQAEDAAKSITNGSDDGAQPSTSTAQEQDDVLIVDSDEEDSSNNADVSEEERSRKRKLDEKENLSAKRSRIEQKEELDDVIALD
Sequence of recombinant human SAE enzyme (Q9UBE0 whole entry partner): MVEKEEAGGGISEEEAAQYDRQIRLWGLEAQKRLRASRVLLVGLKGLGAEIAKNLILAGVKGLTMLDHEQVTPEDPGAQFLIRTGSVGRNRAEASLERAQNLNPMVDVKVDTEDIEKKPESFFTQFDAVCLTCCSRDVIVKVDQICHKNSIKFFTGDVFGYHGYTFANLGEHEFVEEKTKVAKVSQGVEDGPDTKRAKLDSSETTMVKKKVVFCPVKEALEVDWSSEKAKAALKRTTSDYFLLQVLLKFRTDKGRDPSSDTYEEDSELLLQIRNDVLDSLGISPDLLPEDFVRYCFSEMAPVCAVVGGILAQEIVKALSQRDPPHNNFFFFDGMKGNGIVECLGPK

In the case of `COCc1coc(C(=O)c2cncnc2N[C@@H]2C[C@H](COS(N)(=O)=O)[C@@H](O)C2)c1` [I-223, [(1R,2S,4R)-2-Hydroxy-4-({5-[4-(methoxymethyl)-2-furoyl]pyrimidin-4-yl}amino)cyclopentyl]methyl sulfamate], the inhibition at 0.111 µM (Concentration 0.111 μM) amounted to 28%. For the same compound, the IC50 (class symbols A/B/C) was in the range of 100 to 1000 nM. As for `Cc1sc(C(=O)c2cncnc2N[C@@H]2C[C@H](COS(N)(=O)=O)[C@@H](O)C2)cc1[C@@H]1OCCc2cnc(Cl)cc21` (mixture of isomers) [I-316, [(1R,2S,4R)-4-{[5-({4-[(1R)-7-chloro-3,4-dihydro-1H-pyrano[4,3-c]pyridin-1-yl]-5-methyl-2-thienyl}carbonyl)pyrimidin-4-yl]amino}-2-hydroxycyclopentyl]methyl sulfamate and [(1R,2S,4R)-4-{[5-({4-[(1S)-7-chloro-3,4-dihydro-1H-pyrano[4,3-c]pyridin-1-yl]-5-methyl-2-thienyl}carbonyl)pyrimidin-4-yl]amino}-2-hydroxycyclopentyl]methyl sulfamate], the “Percent Inhibition” value under setting [1] turned out to be 94%. The IC50 under setting [2] was less than 10 nM. For the compound `N[C@H](c1cccc(Br)c1)c1cc(C(=O)c2cncnc2N[C@@H]2C[C@H](COS(N)(=O)=O)[C@@H](O)C2)sc1Cl` (single isomer, unassigned) [I-22b, [(1R,2S,4R)-4-{[5-({4-[(R)-amino(3-bromophenyl)methyl]-5-chloro-2-thienyl}carbonyl)pyrimidin-4-yl]amino}-2-hydroxycyclopentyl]methyl sulfamate or [(1R,2S,4R)-4-{[5-({4-[(S)-amino(3-bromophenyl)methyl]-5-chloro-2-thienyl}carbonyl)pyrimidin-4-yl]amino}-2-hydroxycyclopentyl]methyl sulfamate], the “Percent Inhibition” value (Concentration 0.111 μM) is on record as 99. Also, the IC50 (class symbols A/B/C) is less than 10 nM. Take `CN[C@H](c1cccc(Cl)c1)c1csc(C(=O)c2cncnc2N[C@@H]2C[C@H](COS(N)(=O)=O)[C@@H](O)C2)c1` (single isomer, unassigned) [I-47b, [(1R,2S,4R)-4-{[5-({4-[(R)-(3-chlorophenyl)(methylamino)methyl]-2-thienyl}carbonyl)pyrimidin-4-yl]amino}-2-hydroxycyclopentyl]methyl sulfamate or [(1R,2S,4R)-4-{[5-({4-[(S)-(3-chlorophenyl)(methylamino)methyl]-2-thienyl}carbonyl)pyrimidin-4-yl]amino}-2-hydroxycyclopentyl]methyl sulfamate]: the “Percent Inhibition” value (Concentration 0.111 μM) came out at 99. For the same compound, the IC50 (class symbols A/B/C) is less than 10 nM. Regarding `Cc1sc(C(=O)c2cncnc2NC2CC(O)C(COS(N)(=O)=O)C2)cc1C1OCCc2ccccc21` (mixture of isomers) [I-256, [(1R,2S,4R)-4-{[5-({4-[(1R)-3,4-dihydro-1H-isochromen-1-yl]-5-methyl-2-thienyl}carbonyl)pyrimidin-4-yl]amino}-2-hydroxycyclopentyl]methyl sulfamate and [(1R,2S,4R)-4-{[5-({4-[(1S)-3,4-dihydro-1H-isochromen-1-yl]-5-methyl-2-thienyl}carbonyl)pyrimidin-4-yl]amino}-2-hydroxycyclopentyl]methyl sulfamate], the “Percent Inhibition” value (Concentration 0.111 μM) is given as 100. Further, under “class symbols A/B/C”, the IC50 is less than 10 nM. Turning to `NS(=O)(=O)OC[C@H]1C[C@@H](Nc2ncncc2C(=O)c2cc(Cc3cccc(F)c3)cs2)C[C@@H]1O` [I-97, {(1R,2S,4R)-4-[(5-{[4-(3-fluorobenzyl)-2-thienyl]carbonyl}pyrimidin-4-yl)amino]-2-hydroxycyclopentyl}methyl sulfamate], the inhibition at 0.111 µM (Concentration 0.111 μM) was 97%. As to `CO[C@@H](c1cccc(Br)c1)c1csc(C(=O)c2cncnc2N[C@@H]2C[C@H](COS(N)(=O)=O)[C@@H](O)C2)c1` (single isomer, unassigned) [I-73b, [(1R,2S,4R)-4-{[5-({4-[(S)-(3-Bromophenyl)(methoxy)methyl-2-thienyl}carbonyl)pyrimidin-4-yl]amino}-2-hydroxycyclopentyl]methyl sulfamate or [(1R,2S,4R)-4-{[5-(4-[(R)-(3-Bromophenyl)(methoxy)methyl]-2-thienyl)carbonyl)pyrimidin-4-yl]amino}-2-hydroxycyclopentyl]methyl sulfamate], the “Percent Inhibition” value (Concentration 0.111 μM) amounted to 98. Moreover, for the setting “class symbols A/B/C”, the IC50 was less than 10 nM. Regarding `N[C@H](c1cccc(Cl)n1)c1cc(C(=O)c2cncnc2N[C@@H]2C[C@H](COS(N)(=O)=O)[C@@H](O)C2)sc1Cl` (single isomer, unassigned) [I-25b, [(1R,2S,4R)-4-{[5-({4-[(S)-amino(6-chloropyridin-2-yl)methyl]-5-chloro-2-thienyl}carbonyl)pyrimidin-4-yl]amino}-2-hydroxycyclopentyl]methyl sulfamate or [(1R,2S,4R)-4-{[5-({4-[(R)-amino(6-chloropyridin-2-yl)methyl]-5-chloro-2-thienyl}carbonyl)pyrimidin-4-yl]amino}-2-hydroxycyclopentyl]methyl sulfamate], the “Percent Inhibition” value (Concentration 0.111 μM) is 99. Besides, the IC50 (class symbols A/B/C) was less than 10 nM. Take `NS(=O)(=O)OC[C@H]1C[C@@H](Nc2ncncc2C(=O)c2cc([C@@H]3OCC(F)(F)c4ccccc43)cs2)C[C@@H]1O` (mixture of isomers) [I-293, [(1R,2S,4R)-4-{[5-({4-[(1R)-4,4-difluoro-3,4-dihydro-1H-isochromen-1-yl]-2-thienyl}carbonyl)pyrimidin-4-yl]amino}-2-hydroxycyclopentyl]methyl sulfamate and [(1R,2S,4R)-4-{[5-({4-[(1S)-4,4-difluoro-3,4-dihydro-1H-isochromen-1-yl]-2-thienyl}carbonyl)pyrimidin-4-yl]amino}-2-hydroxycyclopentyl]methyl sulfamate]: under setting [1], the “Percent Inhibition” value was found to be 98%. The IC50 under setting [2] is less than 10 nM. For `Cc1sc(C(=O)c2cncnc2N[C@@H]2C[C@H](COS(N)(=O)=O)[C@@H](O)C2)cc1[C@@H]1OCC(F)(F)c2ccc(Cl)cc21.Cc1sc(C(=O)c2cncnc2N[C@@H]2C[C@H](COS(N)(=O)=O)[C@@H](O)C2)cc1[C@H]1OCC(F)(F)c2ccc(Cl)cc21` (mixture of isomers) [I-288, [(1R,2S,4R)-4-{[5-({4-[(1R)-7-chloro-4,4-difluoro-3,4-dihydro-1H-isochromen-1-yl]-5-methyl-2-thienyl}carbonyl)pyrimidin-4-yl]amino}-2-hydroxycyclopentyl]methyl sulfamate and [(1R,2S,4R)-4-{[5-({4-[(1S)-7-chloro-4,4-difluoro-3,4-dihydro-1H-isochromen-1-yl]-5-methyl-2-thienyl}carbonyl)pyrimidin-4-yl]amino}-2-hydroxycyclopentyl]methyl sulfamate], under setting [1], the “Percent Inhibition” value worked out at 99%. Under setting [2], the IC50 is less than 10 nM. For the compound `Cc1ccc2ccn(Cc3csc(C(=O)c4cncnc4N[C@@H]4C[C@H](COS(N)(=O)=O)[C@@H](O)C4)c3)c2c1` [I-132, [(1R,2S,4R)-2-hydroxy-4-{[5-({4-[(6-methyl-1H-indol-1-yl)methyl]-2-thienyl}carbonyl)pyrimidin-4-yl]amino}cyclopentyl]methyl sulfamate], the inhibition at 0.111 µM (Concentration 0.111 μM) was 96%. Also, for the setting “class symbols A/B/C”, the IC50 is less than 10 nM.

Take `NS(=O)(=O)OC[C@H]1C[C@@H](Nc2ncncc2C(=O)c2cc(CSc3ccccc3Cl)cs2)C[C@@H]1O` [I-147, [(1R,2S,4R)-4-({5-[(4-{[(2-chlorophenyl)sulfanyl]methyl}-2-thienyl)carbonyl]pyrimidin-4-yl}amino)-2-hydroxycyclopentyl]methyl sulfamate]: the inhibition at 0.111 µM (Concentration 0.111 μM) was found to be 94%. The 50% inhibitory concentration (IC50) (class symbols A/B/C) was less than 10 nM.

As for `NS(=O)(=O)OC[C@H]1C[C@@H](Nc2ncncc2C(=O)c2cc([C@@H]3OCCc4ccc(Cl)nc43)c(Cl)s2)C[C@@H]1O` (single isomer, unassigned) [I-276b, [(1R,2S,4R)-4-{[5-({5-chloro-4-[(8S)-2-chloro-5,8-dihydro-6H-pyrano[3,4-b]pyridin-8-yl]-2-thienyl}carbonyl)pyrimidin-4-yl]amino}-2-hydroxycyclopentyl]methyl sulfamate or [(1R,2S,4R)-4-{[5-({5-chloro-4-[(8R)-2-chloro-5,8-dihydro-6H-pyrano[3,4-b]pyridin-8-yl]-2-thienyl}carbonyl)pyrimidin-4-yl]amino}-2-hydroxycyclopentyl]methyl sulfamate], the “Percent Inhibition” value (Concentration 0.111 μM) worked out at 101. Further, the IC50 (class symbols A/B/C) is less than 10 nM. As for `NS(=O)(=O)OC[C@H]1C[C@@H](Nc2ncncc2C(=O)c2cc([C@@H]3OCCc4ccc(F)cc43)c(Cl)s2)C[C@@H]1O` (single isomer, unassigned) [I-294, [(1R,2S,4R)-4-[[5-[5-chloro-4-[(1R)-7-fluoroisochroman-1-yl]thiophene-2-carbonyl]pyrimidin-4-yl]amino]-2-hydroxy-cyclopentyl]methyl sulfamate or [(1R,2S,4R)-4-[[5-[5-chloro-4-[(1S)-7-fluoroisochroman-1-yl]thiophene-2-carbonyl]pyrimidin-4-yl]amino]-2-hydroxy-cyclopentyl]methyl sulfamate], under setting [1], the “Percent Inhibition” value was found to be 99%. In addition, the IC50 under setting [2] was less than 10 nM. As to `Cc1sc(C(=O)c2cncnc2N[C@@H]2C[C@H](COS(N)(=O)=O)[C@@H](O)C2)cc1[C@H]1OCCc2ccc(Cl)cc21` [I-257a, [(1R,2S,4R)-4-{[5-({4-[(1S)-7-chloro-3,4-dihydro-1H-isochromen-1-yl]-5-methyl-2-thienyl}carbonyl)pyrimidin-4-yl]amino}-2-hydroxycyclopentyl]methyl sulfamate], the inhibition at 0.111 µM (Concentration 0.111 μM) stood at 74%. In addition, for the setting “class symbols A/B/C”, the IC50 lay in the range of 10 to 100 nM.

As usually defined, the inhibition is the change of the read-out against control, counted positive when it falls. By IC50 is commonly meant the midpoint of a concentration-inhibition curve.

For the origin of these results see patent US10780090B2, “Heteroaryl compounds useful as inhibitors of SUMO activating enzyme” (Millennium Pharmaceuticals, Inc., priority 2014, dated 2020).
